Assay results: ChEMBL document CHEMBL3244073, “1,2,4-Triazole amino nucleosides. 1-beta-D-3'-Amino-3'-deoxyribofuranosyl-1,2,4-triazole-3-carboxamide and related nucleosides” (1977)
Active and inactive are the calls of the source. No cut-off for these calls is given here.

Test system: Vaccinia virus
Assay: Antiviral activity against Vaccinia virus Lederle Chorioallantoic assessed as inhibition of virus-induced cytopathogenicity
Format: functional, organism-based
Conditions: Orthopoxvirus vaccinia

With NC(=O)c1ncn([C@@H]2O[C@H](CO)[C@@H](N)[C@H]2O)n1 the Activity was “inactive”.

In the case of N/C(=N/O)c1ncn([C@@H]2O[C@H](CO)[C@@H](N)[C@H]2O)n1, the Activity is reported as “inactive”.

For NNC(=O)c1ncn([C@@H]2O[C@H](CO)[C@@H](N)[C@H]2O)n1, the Activity was “inactive”.

With N[C@H]1[C@@H](O)[C@H](n2cnc(C(=O)NO)n2)O[C@@H]1CO the Activity was “inactive”.

For NC(=O)c1ncnn1[C@@H]1O[C@H](CO)[C@@H](N)[C@H]1O, the Activity was “inactive”.

N/N=C(/N)c1ncn([C@@H]2O[C@H](CO)[C@@H](N)[C@H]2O)n1 was tested, and the Activity was “inactive”.
